Here are results for 4 compounds from article PMC11473416, “Coumarin-chalcone derivatives as dual NLRP1 and NLRP3 inflammasome inhibitors targeting oxidative stress and inflammation in neurotoxin-induced HMC3 and BE(2)-M17 cell models of Parkinson's disease” (Frontiers in Aging Neuroscience, 2024).

Like-named read-outs stand apart in the source and are kept apart here.

The subject of data set [1] is MPP^+-activated HMC3 cells. The experiment in a line: cell viability (MTT) in MPP^+-activated HMC3 cells. In kind it is cell-based. Conditions: Homo sapiens; HMC3, compound 10 μM 8 h pre-treatment, then 4 mM MPP^+ 20 h; MPP^+ alone 63%; MPP^+-untreated = 100%. As to the method:
To examine anti-inflammatory potential of LM compounds, HMC3 cells were plated into six-well (2 × 10^5/well) dishes, grown for 20 h, and pre-treated with compounds (10 μM) for 8 h before 4 mM MPP^+ addition for 20 h. The cell viability was evaluated by MTT assay as described, and the release of nitric oxide (NO) in cell culture medium was examined by Griess reagent kit (Thermo Fisher Scientific) based on a classic protocol.

Details of data set [2]: method as in Chiu et al., 2021. Conditions: in vivo pharmacokinetic assessment ref Chiu et al., 2021; cited from earlier work.
On the set-up of data set [3]: method as in Huang C. C. et al., 2021. Conditions: parallel artificial membrane permeability assay ref Huang C. C. et al., 2021; cited from earlier work.
The subject of a further data set is HMC3 cells. Briefly: cytotoxicity MTT assay in HMC3 cells. It counts as cell-based, human. Conditions: MPP^+ at 4 mM. As to the method:
Human HMC3 microglial (CRL-3304) and neuroblastoma BE(2)-M17 (CRL-2267) cells were obtained from American Type Culture Collection. BE(2)-M17 develops a better dopaminergic phenotype than SH-SY5Y when treated with retinoic acid to direct neuronal differentiation (Carvajal-Oliveros et al., [2022]). Cells were routinely maintained in Dulbecco's Modified Eagle Medium-Nutrient Mixture F12 (DMEM-F12) supplemented with 10% fetal bovine serum (FBS; Thermo Fisher Scientific, Waltham, MA, USA) in a 37°C incubator, with 95% relative humidity and 5% CO2 (NuAire, Plymouth, MN, USA).
To evaluate cytotoxicity of LM compounds and MPP^+, HMC3 (1 × 10^4) or BE(2)-M17 (2 × 10^4) cells were plated on 96-well dishes, grown for 20 h, and treated with LM compounds (1–100 μM) or MPP^+ [HMC3: 0–8 mM; BE(2)-M17: 0–5 mM]. Next day, 20 μl of tetrazolium dye 3-(4,5-dimethylthiazol-2-yl)-2,5-diphenyltetrazolium bromide (MTT, 5 mg/ml; Sigma-Aldrich) was added to the cells at 37°C for 3 h. The resulted insoluble purple formazan products were dissolved by lysis buffer (composition: 10% Triton X-100, 0.1 N HCl, 18% isopropanol). The absorbance of the dissolved product at optical density (OD) 570 nm was read by using a FLx800 fluorescence microplate spectrophotometer (Bio-Tek, Winooski, VT, USA). The half maximal inhibitory concentration (IC50) of LM compounds was determined through the construction of a dose-response curve. MPP^+ at 4 mM (HMC3 cell viability: 65%−69%) or 0.62 mM [BE(2)-M17 cell viability: 79%−84%] was selected to induce inflammation for further experiments.

The subject of a further data set is CASP1. The experiment in a line: Western blot CASP1 in MPP^+-stimulated HMC3 cells. In kind it is cell-based, human. As to conditions: HMC3, 4 mM MPP^+ alone; untreated = 100%. As to the method: (§1) HMC3 (2 × 10^5/6-well) or BE(2)-M17 (4 × 10^5/6-well) cells were lysed in buffer (composition: 50 mM Tris-HCl pH8.0, 2 mM EDTA pH8.0, 150 mM NaCl, 0.5% sodium deoxycholate, 0.1% SDS, 50 mM NaF, 1% NP40) containing the protease and/or phosphatase inhibitor cocktail (Sigma-Aldrich). After sonication, the lysates were centrifuged (12,000 × g for 10 min at 4°C) and protein concentrations determined (Bradford protein assay; Bio-Rad, Hercules, CA, USA). Aliquots of protein (20 μg) were separated by electrophoresis using 10%−12% SDS–polyacrylamide gel followed by transfer to a polyvinylidene fluoride (PVDF) membrane. […] The immune complexes were detected using horseradish peroxidase (HRP)-conjugated goat anti-mouse or goat anti-rabbit IgG antibody (1:5,000; GeneTex) and chemiluminescent HRP substrate (Millipore, Burlington, MA, USA). Immunoreactive bands were captured (ImageQuant™ LAS 4000, GE Healthcare, Chicago, IL, USA) and quantified (Multi Gauge V3.0 software, Fujifilm, Tokyo, Japan).

The test system of another data set is iNOS. The experiment in a line: Western blot iNOS in MPP^+-stimulated HMC3 cells. It counts as cell-based, human. Conditions: HMC3, 4 mM MPP^+ alone; untreated = 100%. The protocol:
as §1

The next data set relates to IL-1β. The experiment in a line: Western blot IL-1β in MPP^+-stimulated HMC3 cells. Conditions: HMC3, 4 mM MPP^+ alone; untreated = 100%. It counts as cell-based, human. As to the method:
as §1

Another data set relates to TNF-α. Briefly: Western blot TNF-α in MPP^+-stimulated HMC3 cells. In kind it is cell-based, human. Conditions: HMC3, 4 mM MPP^+ alone; untreated = 100%. The protocol: as §1
A further data set concerns caspase-1. The experiment in a line: caspase-1 activity assay in MPP^+-treated BE(2)-M17 cells. It counts as cell-based, human. Conditions: BE(2)-M17, 0.62 mM MPP^+ alone; untreated = 100%. The protocol: BE(2)-M17 cells were plated onto six-well (4 × 10^5/well) and treated with retinoic acid, LM compounds (10 μM), and MPP^+ as described. Cells were collected on day 7 and lysed by six freeze/thaw cycles. Types of substrates applied were: Ac-Tyr-Val-Ala-Asp-7-amino-4-trifluoromethyl coumarin (YVAD-AFC) for caspase-1, Ac-Val-Glu-Ile-Asp-7-amino-4-trifluoromethyl coumarin (VEID-AFC) for caspase-6 (BioVision, Milpitas, CA, USA), and Ac-Asp-Glu-Val-Asp-7-amido-4-methylcoumarin (DEVD-AMC) for caspase-3 (Sigma-Aldrich). The reaction mixtures were incubated for 1.5 h at 37°C per the manufacturer's instructions. The fluorescence intensity at 400 nm excitation and 505 nm emission (caspase-1 and caspase-6) or 360 nm excitation and 460 nm emission (caspase-3) wavelengths were recorded (BioTek FLx800).

Turning to `Cc1ccc(/C=C/C(=O)c2c(O)c3ccccc3oc2=O)cc1` [LM-016], in data set [1], the viability at 10 µM was 81 to 86%.

Turning to `CN(C)c1ccc(/C=C/C(=O)c2c(O)c3ccccc3oc2=O)cc1` [LM-021, (E)-3-(3-(4-(dimethylamino)phenyl)acryloyl)-4-hydroxy-2H-chromen-2-one], the “bioavailability and BBB penetration potential” value in [2] is “good bioavailability and BBB penetration potential”.

With `O=C(/C=C/c1ccccc1O)c1c(O)c2ccccc2oc1=O` [LM-036], in data set [3], the “bioavailability and BBB penetration potential” value was “good bioavailability and BBB penetration potential”.

As for `C[n+]1ccc(-c2ccccc2)cc1` [MPP^+, 1-methyl-4-phenyl pyridinium, reference compound], the cell viability in the data set on HMC3 cells is listed as 65%−69%. For the same compound, the CASP1 expression in the data set on CASP1 is on record as 218%. Moreover, the iNOS expression in the data set on iNOS stood at 156%. The IL-1β expression in the data set on IL-1β is listed as 326%. The same compound came in with a TNF-α expression in the data set on TNF-α of 223%. In addition, the caspase-1 activity in the data set on caspase-1 was 112%.
